According to PubChem BioAssay (NCI):
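How tested: cells in 96-well plates exposed to compound for 48 hours at five concentrations. GI50 marks 50% less growth. TGI: total growth inhibition.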

Legend:
Assay in all cases: DTP human tumour cell line panel, 48 h
[1] = test system: RPMI-8226 leukemia
[2] = test system: M14 melanoma
[3] = test system: MOLT-4 leukemia
[4] = test system: COLO 205 colon
[5] = test system: UACC-62 melanoma
[6] = test system: PC-3 prostate
[7] = test system: LOX IMVI melanoma
[8] = test system: A549 NSCLC
[9] = test system: HS 578T breast
[10] = test system: KM12 colon

## COc1ccc(/C(Cl)=C(\C=O)c2ccc([N+](=O)[O-])cc2)cc1OC
[1]
  TGI: > 25.8 µM
[2]
  TGI: 43.5 µM
[3]
  TGI: > 27.4 µM
[4]
  TGI: > 58.3 µM
[5]
  TGI: 16.2 µM
[6]
  TGI: 48.1 µM
[7]
  TGI: 12.4 µM
[8]
  TGI: > 100 µM
[9]
  TGI: > 100 µM
[10]
  TGI: 94.4 µM

## O=C(OCc1ccccc1)N1CCN(/[N+]([O-])=N/Oc2ccc([N+](=O)[O-])cc2[N+](=O)[O-])CC1
[1]
  GI50: 2.23 µM
  TGI: 6.1 µM
[3]
  GI50: 4.47 µM
  TGI: > 100 µM
[4]
  GI50: 4.35 µM
  TGI: 18.6 µM
[5]
  GI50: 6.72 µM
  TGI: 20.8 µM
[6]
  GI50: 14.2 µM
  TGI: 28.5 µM
[8]
  GI50: 21.5 µM
  TGI: 56 µM
[9]
  GI50: 32.4 µM
  TGI: 97.6 µM
[10]
  GI50: 8.66 µM
  TGI: 24.2 µM

## O=C(O)C1C(C(=O)Nc2ccc3c(c2)Cc2ccccc2-3)C2(Cl)C(Cl)=C(Cl)C1(Cl)C2(Cl)Cl (stereo not drawn)
[1]
  TGI: 32 µM
[2]
  TGI: 42.7 µM
[3]
  TGI: 26.1 µM
[4]
  TGI: 31.4 µM
[5]
  TGI: 31.1 µM
[6]
  TGI: 30 µM
[7]
  TGI: 32.3 µM
[8]
  TGI: > 100 µM
[9]
  TGI: 49.2 µM
[10]
  TGI: 39 µM

## CCCCCC(O)C1C(=O)OC(C)C(O)/C=C/C=C/C=C/C=C\C=C(\C)C(O)CC(O)CC(O)CC(O)CC(O)CC(O)CC1O (stereo not drawn)
[1]
  GI50: > 100 µM
  TGI: > 100 µM
[2]
  GI50: > 100 µM
  TGI: > 100 µM
[3]
  GI50: > 100 µM
  TGI: > 100 µM
[4]
  GI50: > 100 µM
  TGI: > 100 µM
[5]
  GI50: > 100 µM
  TGI: > 100 µM
[6]
  GI50: > 100 µM
  TGI: > 100 µM
[7]
  GI50: > 100 µM
  TGI: > 100 µM
[8]
  GI50: > 100 µM
  TGI: > 100 µM
[9]
  GI50: > 100 µM
  TGI: > 100 µM
[10]
  GI50: > 100 µM
  TGI: > 100 µM

## ClC1=C(Cl)C(Cl)=C(Cl)C1=C/C=C/c1ccccc1
[1]
  GI50: < 0.0374 µM
  TGI: 0.275 µM
[2]
  GI50: 0.279 µM
  TGI: 0.882 µM
[3]
  GI50: 0.335 µM
[4]
  GI50: 0.226 µM
  TGI: 0.686 µM
[5]
  GI50: 0.191 µM
  TGI: 0.467 µM
[6]
  GI50: 0.276 µM
  TGI: 2.65 µM
[7]
  GI50: 0.184 µM
  TGI: 0.407 µM
[8]
  GI50: 0.339 µM
  TGI: 1.24 µM
[9]
  GI50: 0.208 µM
  TGI: 0.685 µM
[10]
  GI50: 0.272 µM
  TGI: 0.684 µM

## CCN(CC)c1cc(/C=C/c2ccc(OC)c(OC)c2)nc2cc(F)c(F)cc12
[1]
  GI50: 22.1 µM
  TGI: > 100 µM
[2]
  GI50: 26.3 µM
  TGI: > 100 µM
[3]
  GI50: 14.2 µM
  TGI: 33.6 µM
[4]
  GI50: 26.7 µM
  TGI: > 100 µM
[5]
  GI50: 7.04 µM
  TGI: > 100 µM
[6]
  GI50: > 100 µM
  TGI: > 100 µM
[7]
  GI50: 7.24 µM
  TGI: 37.7 µM
[8]
  GI50: 30 µM
  TGI: > 100 µM
[9]
  GI50: 3.09 µM
  TGI: 12.3 µM
[10]
  GI50: > 100 µM
  TGI: > 100 µM

## COc1ccc(Nn2c(SCC(=O)Nc3nc(-c4ccc(Cl)cc4)cs3)nc(C)c2C)cc1
[1]
  GI50: 5.8 µM
  TGI: > 100 µM
[2]
  GI50: 3.02 µM
  TGI: > 100 µM
[3]
  GI50: 2.54 µM
  TGI: > 100 µM
[4]
  GI50: 1.94 µM
  TGI: 3.55 µM
[5]
  GI50: 3.62 µM
  TGI: > 100 µM
[6]
  GI50: 2.65 µM
  TGI: > 100 µM
[7]
  GI50: 3.02 µM
  TGI: 44.2 µM
[8]
  GI50: 3.32 µM
  TGI: > 100 µM
[9]
  GI50: 11.8 µM
  TGI: > 100 µM
[10]
  GI50: 1.84 µM
  TGI: 11.1 µM

## NC(=O)C1=NNc2ccccc2C(=O)N1c1ccccc1
[1]
  TGI: > 100 µM
[2]
  TGI: > 100 µM
[3]
  TGI: > 100 µM
[4]
  TGI: > 100 µM
[5]
  TGI: > 100 µM
[6]
  TGI: > 100 µM
[7]
  TGI: > 100 µM
[8]
  TGI: > 100 µM
[9]
  TGI: > 100 µM
[10]
  TGI: > 100 µM

## COc1ccc(NC(=O)n2nc(N)c3ccccc32)cc1OC
[1]
  GI50: 21.1 µM
  TGI: 80.8 µM
[2]
  GI50: 65 µM
  TGI: > 100 µM
[3]
  GI50: 39.4 µM
  TGI: > 100 µM
[4]
  GI50: 85.8 µM
  TGI: > 100 µM
[5]
  GI50: 52.3 µM
  TGI: > 100 µM
[6]
  GI50: 35.5 µM
  TGI: > 100 µM
[7]
  GI50: 49.3 µM
  TGI: > 100 µM
[8]
  GI50: 45.8 µM
  TGI: > 100 µM
[9]
  GI50: 43.3 µM
  TGI: > 100 µM
[10]
  GI50: 67.9 µM
  TGI: > 100 µM

## CCC(C)n1cc(C)c2c(C(=O)NCc3c(C)cc(C)[nH]c3=O)cc(Br)cc21 (stereo not drawn)
[1]
  GI50: 24.8 µM
  TGI: 68 µM
[2]
  GI50: 35.2 µM
  TGI: > 100 µM
[3]
  GI50: 26.2 µM
  TGI: 71.6 µM
[4]
  GI50: 42.1 µM
  TGI: > 100 µM
[5]
  GI50: 29.4 µM
  TGI: > 100 µM
[6]
  GI50: 19.1 µM
  TGI: 66.9 µM
[7]
  GI50: 32.8 µM
  TGI: > 100 µM
[8]
  GI50: 39.7 µM
  TGI: > 100 µM
[9]
  GI50: 35 µM
  TGI: > 100 µM
[10]
  GI50: 38.1 µM
  TGI: > 100 µM

## NC(CSC(c1ccccc1)(c1ccccc1)c1ccc(Cl)cc1)C(=O)O (stereo not drawn)
[1]
  GI50: 0.143 µM
  TGI: 21.5 µM
[2]
  GI50: 0.0322 µM
  TGI: 0.132 µM
[3]
  GI50: 1.66 µM
  TGI: 53.3 µM
[4]
  GI50: 0.256 µM
  TGI: 0.768 µM
[5]
  GI50: 0.18 µM
  TGI: 21.6 µM
[6]
  GI50: 0.342 µM
  TGI: 32.6 µM
[7]
  GI50: 0.682 µM
  TGI: 36.3 µM
[8]
  GI50: 0.468 µM
  TGI: > 62 µM
[9]
  GI50: 0.114 µM
  TGI: 3.83 µM
[10]
  GI50: 0.322 µM
  TGI: 15.1 µM

## OCCCN=NNc1ccc(-c2nc3ccccc3[nH]2)cc1
[1]
  GI50: 34.2 µM
  TGI: > 100 µM
[2]
  GI50: 39.9 µM
  TGI: 69.4 µM
[3]
  GI50: 43.6 µM
  TGI: > 100 µM
[4]
  GI50: 12.3 µM
  TGI: 52.9 µM
[5]
  GI50: 17.6 µM
  TGI: 50.8 µM
[6]
  GI50: 24.1 µM
  TGI: 77.5 µM
[8]
  GI50: 2.62 µM
  TGI: > 100 µM
[9]
  GI50: 4.54 µM
  TGI: 21.9 µM
[10]
  GI50: 5.12 µM
  TGI: 24.9 µM

## COc1ccccc1-n1c(-c2cc(O)ccc2C)cn2c3c(=O)[nH]c(=O)n(C)c3nc12
[1]
  GI50: > 100 µM
  TGI: > 100 µM
[2]
  GI50: 90.8 µM
  TGI: > 100 µM
[3]
  GI50: 85.9 µM
  TGI: > 100 µM
[4]
  GI50: 18.2 µM
  TGI: 48 µM
[5]
  GI50: > 100 µM
  TGI: > 100 µM
[6]
  GI50: > 100 µM
  TGI: > 100 µM
[7]
  GI50: 2.28 µM
  TGI: 16 µM
[8]
  GI50: 17.4 µM
  TGI: > 100 µM
[9]
  GI50: 0.567 µM
  TGI: 5.75 µM
[10]
  GI50: > 100 µM
  TGI: > 100 µM
